Test results from patent publication US20230278972A1, “SUBSTITUTED HALOALKYL SULFONANILIDE HERBICIDES” (FMC Corporation, priority 2020, published 2023).

Columns and labels:
Assay type in all cases: in vivo
[1] = test system: kochia (Bassia scoparia); assay: Test A1 postemergence, kochia; details: Postemergence
Procedure, shortened: (§1)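 Seeds were first planted into a blend of loam soil and sand and given a preemergence directed soil spray. In parallel, pots of the same soil were sown for postemergence application once plants reached 2 to 10 cm and the one- to two-leaf stage. Both used surfactant-containing non-phytotoxic solvent formulations.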

[2] = test system: Oat, Wild (wild oat, Avena fatua); assay: Test A1 preemergence, Oat, Wild
Procedure, shortened: as §1

[3] = test system: Oat, Wild (wild oat, Avena fatua); assay: Test A1 postemergence, Oat, Wild; details: Postemergence
Procedure, shortened: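 Plants were grown in a loam soil/sand blend, with test chemicals formulated in a non-phytotoxic solvent mixture containing surfactant. Preemergence treatment (corn) was a directed soil spray at planting. Postemergence treatment was applied to plants 2 to 10 cm tall at the one- to two-leaf stage.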

[4] = test system: wheat (Triticum aestivum); assay: Test A1 postemergence, wheat; details: Postemergence
Procedure, shortened: as §1

[5] = test system: barnyardgrass (Echinochloa crus-galli); assay: Test B1 flooded paddy test, barnyardgrass; details: 250 g ai/ha, Flood, applied to paddy water, 2-leaf stage, visually evaluated after 10 to 14 days
Text: A dash (-) response means no test result.

[6] = test system: goosegrass (Eleusine indica); assay: Test A1 postemergence, goosegrass; details: Postemergence
Procedure, shortened: as §1

[7] = test system: Ryegrass, Italian (Italian ryegrass, Lolium multiflorum); assay: Test A1 postemergence, Ryegrass, Italian; details: Postemergence
Procedure, shortened: as §1

[8] = test system: blackgrass (Alopecurus myosuroides); assay: Test A1 postemergence, blackgrass; details: Postemergence, 0 to 100 scale (0 no effect, 100 complete control)
Procedure, shortened: as §1

[9] = 31 g ai/ha, 0 to 100 scale (0 no effect, 100 complete control), 10 days
[10] = 31 g ai/ha, 0 to 100 scale (0 no effect, 100 complete control)
[11] = 125 g ai/ha, 0 to 100 scale, 0 no effect, 100 complete control

Row | SMILES | Plant response rating, Kochia [1, 9] | Plant response rating, Kochia ([1]; 125 g ai/ha, 0 to 100 scale) | Plant response rating, Oat, Wild [2, 10] | Plant response rating, Oat, Wild [2, 11] | Plant response rating, Oat, Wild [3, 9] | Plant response rating, Oat, Wild ([3]; 125 g ai/ha, 0 to 100 scale) | Plant response rating, Wheat [4, 9] | Plant response rating, Wheat ([4]; 125 g ai/ha, 0 to 100 scale) | Plant response rating, Barnyardgrass (0 to 100 scale, 0 is no effect, 100 is complete control) [5] | Plant response rating, Goosegrass [6, 9] | Plant response rating, Goosegrass ([6]; 125 g ai/ha, 0 to 100 scale) | Plant response rating, Ryegrass, Italian [7, 9] | Plant response rating, Ryegrass, Italian ([7]; 125 g ai/ha, 0 to 100 scale) | Plant response rating, Blackgrass ([8]; 31 g ai/ha, 10 days) | Plant response rating, Blackgrass ([8]; 125 g ai/ha)
1 | Cc1c(C(=O)N2CCOCC2)cc(NS(=O)(=O)C(F)(F)F)c(Cl)c1F [Compound 321] | 40 | 80 | 0 | 50 | 0 | 10 | 0 | 10 | 15 | 0 | 80 | 30 | 40 | 10 | 10
2 | Cc1cc(C)c(C2=NOC(OCC(C)C)C2)cc1NS(=O)(=O)C(F)(F)F (stereo not drawn) [Compound 322] | 10 | 30 | 0 | 30 | 0 | 0 | 0 | 30 | 55 | 20 | 50 | 0 | 40 | 20 | 50
3 | CCCCOC1CC(c2cc(NS(=O)(=O)C(F)(F)F)c(C)cc2C)=NO1 (stereo not drawn) [Compound 323] | 50 | 60 | 20 | 30 | 0 | 0 | 0 | 50 | 0 | 0 | 50 | 0 | 20 | 0 | 50
4 | Cc1c(C(=O)N2CCOCC2)cc(N(COC(=O)C(C)(C)C)S(=O)(=O)C(F)(F)F)c(C)c1C [Compound 324, [[(Trifluoromethyl)sulfonyl][2,3,4-trimethyl-5-(4-morpholinylcarbonyl)phenyl]amino]methyl 2,2-dimethylpropanoate] | 30 | 50 | 20 | 40 | 0 | 0 | 0 | 30 | 90 | 30 | 80 | 0 | 30 | 0 | 0
5 | CCOC(=O)N(c1cc(C(=O)N2CCOCC2)c(C)c(C)c1C)S(=O)(=O)C(F)(F)F [Compound 325] | 20 | 50 | 0 | 70 | 0 | 10 | 30 | 50 | 95 | 0 | 90 | 0 | 60 | 0 | 90
6 | Cc1c(NS(=O)(=O)C(F)(F)F)cc(C(=O)N2CCCCC2)c(C)c1C [Compound 326] | 30 | 70 | 10 | 10 | 0 | 0 | 0 | 0 | 0 | 0 | 80 | 0 | 30 | 0 | 0
7 | Cc1c(NS(=O)(=O)C(F)(F)F)cc(C(=O)N2CC(C)OC(C)C2)c(C)c1C (stereo not drawn) [Compound 327] | 10 | 30 | 0 | 70 | 0 | 0 | 0 | 50 | 30 | 20 | 70 | 0 | 30 | 0 | 0
8 | Cc1c(C(=O)N2CCCCC2)cc(N(COC(=O)C(C)(C)C)S(=O)(=O)C(F)(F)F)c(C)c1C [Compound 329, [[(Trifluoromethyl)sulfonyl][2,3,4-trimethyl-5-(1-piperidinylcarbonyl)phenyl]amino]methyl 2,2-dimethylpropanoate] | 10 | 20 | 0 | 0 | 0 | 0 | 0 | 0 | 95 | 0 | 30 | 0 | 0 | 0 | 30
9 | Cc1c(C(=O)N2C[C@@H](C)O[C@@H](C)C2)cc(N(COC(=O)C(C)(C)C)S(=O)(=O)C(F)(F)F)c(C)c1C [Compound 331] | 0 | 10 | 0 | 0 | 0 | 20 | 0 | 50 | 98 | 0 | 50 | 10 | 50 | 0 | 50
10 | CCOC(=O)N(c1cc(C(=O)N2C[C@@H](C)O[C@@H](C)C2)c(C)c(C)c1C)S(=O)(=O)C(F)(F)F [Compound 332] | 0 | 10 | 0 | 20 | 0 | 30 | 10 | 50 | 98 | 0 | 90 | 0 | 50 | 0 | 90
11 | Cc1c(C(=O)N2CCCCC2)cc(NS(=O)(=O)C(F)(F)F)c(Cl)c1F [Compound 333] | 30 | 70 | 20 | 40 | 0 | 10 | 0 | 30 | 0 | 0 | 30 | 0 | 0 | 0 | 30
